Experimental data published in patent US11278584B2, “Pharmaceutical composition for preventing and treating senile dementia and preparation method thereof” (priority 2014, dated 2022).
Where a name gives a salt, the structure may show the parent alone.

Legend:
[1] = tested on: Scop induced dysmnesia model mice; assay: Morris water maze test, scopolamine-induced dysmnesia model mice; format: in vivo; settings: KM mice, intragastric 2 weeks, compositions 31.66 g raw medicinal materials/kg (J: high dosage), Donepezil 1.67 mg/kg
Text: Animals: KM mice, available from Da Shuo Biological Technology Co. LTD, Chengdu City, China, were used.
Before experiments, mice of experimental group were fed by intragastric administration of a pharmaceutical composition for 2 weeks, while the normal control group and the model group were fed the same volume of distilled water. On day 9, mice were trained in the pool of Morris, 2 times per day. On day 14, mice were subjected to Morris water Maze testing.
On experiment day, mice were fed by intragastric administration. 30 Minutes later, they were administered with Scop in a dosage of 3 mg·kg^−1 via intraperitoneal injection. 20 Minutes later, the mice were subjected to Morris water Maze testing. The normal control group was intraperitoneally injected with the same volume of saline. The swimming performance of mice were tracked and recorded by a camera. The travel path, time spent and speed of movement of mice in 300 s were recorded by a computer automatically. The maximum latency was set as 300 s. The recording stopped after 300 s. The escape latency and swimming distance for looking for the platform were recorded.

[2] = tested on: Scop induced dysmnesia model rats; assay: Jump platform test, scopolamine-induced dysmnesia model rats; format: in vivo, SD Male rats; settings: intragastric 2 weeks, compositions 11.08 g raw medicinal materials/kg, Donepezil 1.17 mg/kg
Experimental: (§1) Animals: SD Male rats, available from Da Shuo Biological Technology Co. LTD, Chengdu City, China, were used. 2. Testing Method
(§2) Rats were randomly divided into Normal control group, Scop Model group, Positive control group (Donepezil, 1.17 mg/kg) and Experimental group (administered with a pharmaceutical composition of Example 1 in an amount of 11.08g raw medicinal materials per kg body weight). Before experiments, rats were fed by intragastric administration for 2 weeks. The normal control group and the model group were fed the same volume of distilled water. On day 9, rats were trained in the pool of Morris 2 times per day. On day 14, rats were subjected to do Morris water Maze and jump platform testing.
(§3) On experiment day, rats were intragastrically administered. 30 Minutes later, they were administered with scopolamine hydrobromide (HBr) by intraperitoneal injections (2 mg·kg^−1 for two days and then 1 mg·kg^−1 on day 3). 20 Minutes later, rats were subjected to Morris water Maze testing. […] Their swimming performance was tracked and recorded by a camera. The travel path, time spent and speed of movement of rats in 90 s were recorded by a computer automatically, and the swimming distance and escape latency for finding the platform were calculated. […] The first step down latency (SDL) and escape latency (the time required to escape from electric shock, EL) of rats were recorded.

[3] = tested on: Scop induced dysmnesia model rats; assay: Morris water maze test, scopolamine-induced dysmnesia model rats; format: in vivo, SD Male rats; settings: intragastric 2 weeks, compositions 11.08 g raw medicinal materials/kg, Donepezil 1.17 mg/kg
Experimental: as §1, §2, §3

COc1cc2c(cc1OC)C(=O)C(CC1CCN(Cc3ccccc3)CC1)C2 (stereo not drawn) [Positive control, Donepezil Hydrochloride]
Escape latency ([1]; model control 176.54): 141.42 s | Swimming Distance (cm) ([1]; model control 3646.54): 2738.70 cm | SDL(s) (first step down latency) ([2]; model control 16.04): 28.67 s | EL(s) (escape latency from electric shock) ([2]; model control 130.63): 109.17 s | Escape latency ([3]; model control 49.63): 37.27 s | Distance (cm) ([3]; model control 2173.42): 1647.50 cm
